pIC50, pKi: −log10 of the molar value. ≈ marks a conversion by molar mass, not a printed value.

In series [1] the target is T1, Corticotropin-releasing factor receptor 1 (Homo sapiens, UniProt P34998).
T1 sequence (P34998 whole entry): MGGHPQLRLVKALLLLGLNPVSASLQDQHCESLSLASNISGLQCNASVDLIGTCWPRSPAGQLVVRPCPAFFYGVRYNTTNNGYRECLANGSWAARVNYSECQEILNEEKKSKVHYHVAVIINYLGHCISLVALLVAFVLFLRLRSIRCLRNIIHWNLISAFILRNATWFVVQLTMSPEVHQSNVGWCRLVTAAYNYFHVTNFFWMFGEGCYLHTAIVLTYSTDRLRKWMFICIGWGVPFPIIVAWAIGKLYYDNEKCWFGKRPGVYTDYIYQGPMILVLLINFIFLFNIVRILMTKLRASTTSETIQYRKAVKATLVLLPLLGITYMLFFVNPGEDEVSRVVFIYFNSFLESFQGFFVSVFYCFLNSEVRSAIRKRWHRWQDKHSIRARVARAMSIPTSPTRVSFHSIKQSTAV
As to the kind of experiment: Antagonist activity at CRF1 receptor expressed in mouse AtT20 cells assessed as inhibition of sauvagine-stimulated cAMP accumulation. The series is classed as functional, cell-based.

Series [2] can be described thus: Solubility in 0.1 N hydrochloric acid. The class given is physicochemical.
Series [3] can be described thus: Oral bioavailability in Sprague-Dawley rat at 20 mg/kg. The class given is ADME, organism-based. The settings on record: in vivo.
Series [4] in a line: Cmax in Sprague-Dawley rat at 20 mg/kg, po and 3 mg/kg, iv. The class given is ADME, organism-based. The settings on record: in vivo.
A short description of series [5]: Tmax in Sprague-Dawley rat at 20 mg/kg, po and 3 mg/kg, iv. The class given is ADME, organism-based. As to conditions: in vivo.
The nature of series [6]: Half life in Sprague-Dawley rat at 20 mg/kg, po and 3 mg/kg, iv. The series is classed as ADME, organism-based. As to conditions: in vivo.
Series [7] is described as follows: Clearance in Sprague-Dawley rat at 20 mg/kg, po and 3 mg/kg, iv. The class given is ADME, organism-based. As to conditions: in vivo.
A short description of series [8]: Volume of distribution in Sprague-Dawley rat at 20 mg/kg, po and 3 mg/kg, iv. The class given is ADME, organism-based. The settings on record: in vivo.
For series [9], the target named is T1, Corticotropin-releasing factor receptor 1. Nature of the series: biochemical. The series is classed as cell-based, IMR-32.
Description: Displacement of [125I]sauvagine from human CRF1 receptor expressed in IMR32 cells

As to `CCCN(CCC)c1c(C)nc(-c2c(C)cc(C)cc2OC)c2ccccc12`, the pIC50 in series [1] was 7.92. For the same compound, the solubility in series [2] was below 0.5 µg/mL. The compound further displayed a bioavailability in series [3] of 5%. Moreover, the Cmax in series [4] came to 387 ng/mL. Also, the Tmax in [5] was 0.7 h. In series [6], this compound gave a half-life of 5.4 h. The clearance in [7] is 14.5 mL/min/kg. Further, the Vd in series [8] is 13 L/kg. `CCC(CC)Nc1c(C)nc(-c2c(C)cc(C)cc2OC)nc1OC` had a pKi in [9] of 7.03. On the same count and under the same terms, the figure for `CCCN(CCC)c1c(CC(C)O)nc(-c2c(C)cc(C)cc2OC)nc1OC` (stereo not given) is 5.94. Still for that read-out and setting: the figure for `CCCN(CCC)c1c(C)nc(-c2ccc(Cl)cc2Cl)nc1OC` is below 5.00. On the same count and under the same terms, for `CCCN(CCC)c1c(C)nc(-c2c(C)cc(C)cc2OC)nc1OC(C)C` the value was below 5.30; for `CCCN(CCC)c1c(C)nc(-c2c(C)cc(C)cc2OC)nc1OCCO`, 5.79. `CCCc1nc(-c2c(C)cc(C)cc2OC)nc(OC)c1N(CCC)CCC`: the pKi in series [9] was 7.12. Still for that read-out and setting: for `CCCN(CCC)c1c(C)nc(-c2c(C)cc(C)cc2OC)nc1OC` the value was 7.82; for `CCCNc1c(C)nc(-c2c(C)cc(C)cc2OC)nc1OC`, below 5.00.

In [9], `COc1cc(C)cc(C)c1-c1nc(C)c(NCC(C)(C)C)c(OC)n1` showed a pKi below 5.00. For the compound `CCCN(CCC)c1c(C)nc(-c2c(OC)cc(C(F)(F)F)cc2C(F)(F)F)nc1OC`, the pKi in [9] is 8.22. The compound `CCC(CC)Oc1c(C)nc(-c2c(C)cc(C)cc2OC)nc1OC` showed a pKi in [9] of 8.10. For the same compound, the pIC50 in series [1] was 7.72. Regarding `CCC(CC)Oc1c(C)nc(-c2c(OC)cc(Cl)cc2OC)nc1OC`, the pKi in [9] was 8.05. Moreover, the pIC50 in [1] was 8.15. This compound also came in with a solubility in [2] of 28 µg/mL (≈ 73.5 µM). In [3], the bioavailability is 6%. In [4], the Cmax worked out at 194 ng/mL. Moreover, the Tmax in series [5] was 1.8 h. Besides, the half-life in series [6] was 8.3 h. In [7], this compound came in with a clearance of 13.6 mL/min/kg. The same compound displayed a Vd in series [8] of 14 L/kg. For the compound `CCC(CC)c1cc(C)nn2c(-c3sc(N4CCOCC4)nc3Cl)c(C)nc12`, the pKi in series [9] was 9.70. The same measure, in the same setting: for `CCCN(CCC)c1c(C)nc(-c2c(C)cc(C)cc2OC)nc1OCC` the value was 7.80.

In turn, `CCCN(CCC)c1c(C)nc(-c2c(C)cc(C)cc2OC)nc1Cl` showed a pKi in [9] of 7.48. Still for that read-out and setting: for `CCCN(CCC)c1cnc(-c2c(C)cc(C)cc2OC)nc1C` the value was 6.25; for `CCC(CC)Oc1c(C)nc(-c2c(OC)cc(C(F)F)cc2OC)nc1OC`, 8.05; for `CCCN(CCC)c1c(C)nc(-c2c(OC)cccc2OC)nc1OC`, 6.56. Still for that read-out and setting: for `CCCN(CCC)c1c(CC(C)(C)O)nc(-c2c(C)cc(C)cc2OC)nc1OC` the value was 6.22. Compound `CCCN(CCC)c1c(CC)nc(-c2c(C)cc(C)cc2OC)nc1OC` showed a pKi in [9] of 7.66. In [9], `CCCN(CCC)c1c(C)nc(-c2c(OC)cc(Cl)cc2OC)nc1OC` had a pKi of 8.70. Further, the pIC50 in series [1] is 9.00. In series [2], this compound yielded a solubility of 27 µg/mL (≈ 68.5 µM). In series [3], the bioavailability turned out to be 2%. Further, the concentration in series [4] peaked (Cmax) at 210 ng/mL. Besides, the Tmax in series [5] worked out at 0.6 h. For the same compound, the half-life in series [6] was 2.8 h. For the same compound, in series [7], the clearance was 21 mL/min/kg. The compound also displayed a Vd in [8] of 12 L/kg. `CCCN(CCC)c1c(C)nc(-c2ccc(OC)cc2OC)nc1OC` had a pKi in [9] of 6.29. Same read-out and setting: for `CCCN(CCC)c1c(C)nc(-c2c(C)cc(C)cc2C)nc1OC` the value was 6.45; for `CCCOc1nc(-c2c(C)cc(C)cc2OC)nc(C)c1N(CCC)CCC`, 7.28. The same measure, in the same setting: for `CCCCN(CC)c1nc(C)nc2c1c(C)cn2-c1c(C)cc(C)cc1C` [CP-154526] the value was 8.52.

Source of the values: ChEMBL document CHEMBL1156589, “2-Arylpyrimidines: novel CRF-1 receptor antagonists” (Bioorg Med Chem Lett, 2008).
